Results from ChEMBL document CHEMBL4033723, “Succinamide derivatives of melampomagnolide B and their anti-cancer activities” (2017).

Columns and labels:
Assay type in all cases: functional
CCRF-CEM = assay: Growth inhibition of human CCRF-CEM cells after 48 hrs by sulforhodamine B assay
HL-60(TB) = assay: Growth inhibition of human HL-60(TB) cells after 48 hrs by sulforhodamine B assay; conditions: HL-60, 48 h
K562 = assay: Growth inhibition of human K562 cells after 48 hrs by sulforhodamine B assay; conditions: K562, 48 h
MOLT-4 = assay: Growth inhibition of human MOLT4 cells after 48 hrs by sulforhodamine B assay; conditions: MOLT-4, 48 h
RPMI-8226 = assay: Growth inhibition of human RPMI8226 cells after 48 hrs by sulforhodamine B assay; conditions: RPMI-8226, 48 h
SR = assay: Growth inhibition of human SR cells after 48 hrs by sulforhodamine B assay
A549 = assay: Growth inhibition of human A549/ATCC cells after 48 hrs by sulforhodamine B assay; conditions: A549, 48 h
HOP-92 = assay: Growth inhibition of human HOP92 cells after 48 hrs by sulforhodamine B assay; conditions: HOP-92, 48 h
NCI-H226 = assay: Growth inhibition of human NCI-H226 cells after 48 hrs by sulforhodamine B assay; conditions: NCI-H226, 48 h
NCI-H23 = assay: Growth inhibition of human NCI-H23 cells after 48 hrs by sulforhodamine B assay; conditions: NCI-H23, 48 h
NCI-H322M = assay: Growth inhibition of human NCI-H322M cells after 48 hrs by sulforhodamine B assay
NCI-H460 = assay: Growth inhibition of human NCI-H460 cells after 48 hrs by sulforhodamine B assay; conditions: NCI-H460, 48 h
NCI-H522 = assay: Growth inhibition of human NCI-H522 cells after 48 hrs by sulforhodamine B assay; conditions: NCI-H522, 48 h
COLO 205 = assay: Growth inhibition of human COLO205 cells after 48 hrs by sulforhodamine B assay; conditions: COLO 205, 48 h
HCC 2998 = assay: Growth inhibition of human HCC2998 cells after 48 hrs by sulforhodamine B assay; conditions: HCC 2998, 48 h
HCT-116 = assay: Growth inhibition of human HCT116 cells after 48 hrs by sulforhodamine B assay; conditions: HCT-116, 48 h
HCT-15 = assay: Growth inhibition of human HCT15 cells after 48 hrs by sulforhodamine B assay; conditions: HCT-15, 48 h
HT-29 = assay: Growth inhibition of human HT-29 cells after 48 hrs by sulforhodamine B assay; conditions: HT-29, 48 h
KM12 = assay: Growth inhibition of human KM12 cells after 48 hrs by sulforhodamine B assay; conditions: KM12, 48 h
SW-620 = assay: Growth inhibition of human SW620 cells after 48 hrs by sulforhodamine B assay; conditions: SW-620, 48 h
SF-268 = assay: Growth inhibition of human SF268 cells after 48 hrs by sulforhodamine B assay; conditions: SF-268, 48 h
SF-295 = assay: Growth inhibition of human SF295 cells after 48 hrs by sulforhodamine B assay; conditions: SF-295, 48 h
SF-539 = assay: Growth inhibition of human SF539 cells after 48 hrs by sulforhodamine B assay; conditions: SF-539, 48 h
SNB-19 = assay: Growth inhibition of human SNB19 cells after 48 hrs by sulforhodamine B assay; conditions: SNB-19, 48 h
SNB-75 = assay: Growth inhibition of human SNB75 cells after 48 hrs by sulforhodamine B assay; conditions: SNB-75, 48 h
U-251 = assay: Growth inhibition of human U251 cells after 48 hrs by sulforhodamine B assay; conditions: U-251, 48 h
LOX IMVI = assay: Growth inhibition of human LOXIMVI cells after 48 hrs by sulforhodamine B assay
Malme-3M = assay: Growth inhibition of human MALME-3M cells after 48 hrs by sulforhodamine B assay
M14 = assay: Growth inhibition of human M14 cells after 48 hrs by sulforhodamine B assay; conditions: M14, 48 h
MDA-MB-435 = assay: Growth inhibition of human MDA-MB-435 cells after 48 hrs by sulforhodamine B assay; conditions: MDA-MB-435, 48 h
SK-MEL-2 = assay: Growth inhibition of human SK-MEL-2 cells after 48 hrs by sulforhodamine B assay; conditions: SK-MEL-2, 48 h
SK-MEL-28 = assay: Growth inhibition of human SK-MEL-28 cells after 48 hrs by sulforhodamine B assay; conditions: SK-MEL-28, 48 h
SK-MEL-5 = assay: Growth inhibition of human SK-MEL-5 cells after 48 hrs by sulforhodamine B assay; conditions: SK-MEL-5, 48 h
UACC-257 = assay: Growth inhibition of human UACC257 cells after 48 hrs by sulforhodamine B assay; conditions: UACC-257, 48 h
UACC-62 = assay: Growth inhibition of human UACC62 cells after 48 hrs by sulforhodamine B assay; conditions: UACC-62, 48 h
OVCAR-3 = assay: Growth inhibition of human OVCAR3 cells after 48 hrs by sulforhodamine B assay; conditions: OVCAR-3, 48 h
OVCAR-4 = assay: Growth inhibition of human OVCAR4 cells after 48 hrs by sulforhodamine B assay; conditions: OVCAR-4, 48 h
OVCAR-5 = assay: Growth inhibition of human OVCAR5 cells after 48 hrs by sulforhodamine B assay; conditions: OVCAR-5, 48 h
OVCAR-8 = assay: Growth inhibition of human OVCAR8 cells after 48 hrs by sulforhodamine B assay; conditions: OVCAR-8, 48 h
NCI/ADR-RES = assay: Growth inhibition of human NCI-ADR-RES cells after 48 hrs by sulforhodamine B assay
SK-OV-3 = assay: Growth inhibition of human SKOV3 cells after 48 hrs by sulforhodamine B assay; conditions: SK-OV-3, 48 h
786-0 = assay: Growth inhibition of human 786-0 cells after 48 hrs by sulforhodamine B assay; conditions: 786-0, 48 h
A498 = assay: Growth inhibition of human A498 cells after 48 hrs by sulforhodamine B assay; conditions: A498, 48 h
ACHN = assay: Growth inhibition of human ACHN cells after 48 hrs by sulforhodamine B assay
CAKI-1 = assay: Growth inhibition of human Caki1 cells after 48 hrs by sulforhodamine B assay; conditions: CAKI-1, 48 h
RXF 393 = assay: Growth inhibition of human RXF393 cells after 48 hrs by sulforhodamine B assay; conditions: RXF 393, 48 h
SN12C = assay: Growth inhibition of human SN12C cells after 48 hrs by sulforhodamine B assay
TK-10 = assay: Growth inhibition of human TK10 cells after 48 hrs by sulforhodamine B assay; conditions: TK-10, 48 h
UO-31 = assay: Growth inhibition of human UO31 cells after 48 hrs by sulforhodamine B assay; conditions: UO-31, 48 h
PC-3 = assay: Growth inhibition of human PC3 cells after 48 hrs by sulforhodamine B assay; conditions: PC-3, 48 h
DU-145 = assay: Growth inhibition of human DU145 cells after 48 hrs by sulforhodamine B assay; conditions: DU-145, 48 h
MCF7 = assay: Growth inhibition of human MCF7 cells after 48 hrs by sulforhodamine B assay; conditions: MCF7, 48 h
MDA-MB-231 = assay: Growth inhibition of human MDA-MB-231 cells after 48 hrs by sulforhodamine B assay; conditions: MDA-MB-231, 48 h
Hs-578T = assay: Growth inhibition of human Hs 578T cells after 48 hrs by sulforhodamine B assay
BT-549 = assay: Growth inhibition of human BT549 cells after 48 hrs by sulforhodamine B assay; conditions: BT-549, 48 h
T47D = assay: Growth inhibition of human T47D cells after 48 hrs by sulforhodamine B assay
MDA-MB-468 = assay: Growth inhibition of human MDA-MB-468 cells after 48 hrs by sulforhodamine B assay; conditions: MDA-MB-468, 48 h
[1] = Growth inhibition of human M9-ENL1 cells after 24 hrs by trypan blue assay; conditions: M9-ENL1, 24 h
[2] = Induction of apoptosis in human M9-ENL1 cells assessed as cell death after 24 hrs by Annexin V/PI or 7-AAD staining based flow cytometry; conditions: M9-ENL1, 24 h, read-out: LC50 (the source's name)
[3] = Potency index, ratio of compound effect to PTL effect for cytotoxicity against human M9-ENL1 cells

Compound: C=C1C(=O)O[C@H]2[C@H]1CC/C(COC(=O)CCC(=O)N1CCC(C)CC1)=C\CC[C@@]1(C)O[C@@H]21
- GI50 (CCRF-CEM): 1400 nM
- GI50 (HL-60(TB)): 3160 nM
- GI50 (K562): 3060 nM
- GI50 (MOLT-4): 3330 nM
- GI50 (RPMI-8226): 4740 nM
- GI50 (SR): 2720 nM
- GI50 (A549): 15800 nM
- GI50 (HOP-92): 2050 nM
- GI50 (NCI-H226): 3510 nM
- GI50 (NCI-H23): 5240 nM
- GI50 (NCI-H322M): 17600 nM
- GI50 (NCI-H460): 16000 nM
- GI50 (NCI-H522): 1500 nM
- GI50 (COLO 205): 2940 nM
- GI50 (HCC 2998): 11500 nM
- GI50 (HCT-116): 1690 nM
- GI50 (HCT-15): 1700 nM
- GI50 (HT-29): 4280 nM
- GI50 (KM12): 12100 nM
- GI50 (SW-620): 2330 nM
- GI50 (SF-268): 13200 nM
- GI50 (SF-295): 14700 nM
- GI50 (SF-539): 2350 nM
- GI50 (SNB-19): 14000 nM
- GI50 (SNB-75): 11200 nM
- GI50 (U-251): 16700 nM
- GI50 (LOX IMVI): 2950 nM
- GI50 (Malme-3M): 2950 nM
- GI50 (M14): 3440 nM
- GI50 (MDA-MB-435): 4840 nM
- GI50 (SK-MEL-2): 13100 nM
- GI50 (SK-MEL-28): 3100 nM
- GI50 (SK-MEL-5): 7170 nM
- GI50 (UACC-257): 3570 nM
- GI50 (UACC-62): 5150 nM
- GI50 (OVCAR-3): 4320 nM
- GI50 (OVCAR-4): 2640 nM
- GI50 (OVCAR-5): 6360 nM
- GI50 (OVCAR-8): 3370 nM
- GI50 (NCI/ADR-RES): 13100 nM
- GI50 (SK-OV-3): 26800 nM
- GI50 (786-0): 6640 nM
- GI50 (A498): 2770 nM
- GI50 (ACHN): 2640 nM
- GI50 (CAKI-1): 2830 nM
- GI50 (RXF 393): 1910 nM
- GI50 (SN12C): 4800 nM
- GI50 (TK-10): 3900 nM
- GI50 (UO-31): 3560 nM
- GI50 (PC-3): 13000 nM
- GI50 (DU-145): 4440 nM
- GI50 (MCF7): 2220 nM
- GI50 (MDA-MB-231): 7130 nM
- GI50 (Hs-578T): 20400 nM
- GI50 (BT-549): 1820 nM
- GI50 (T47D): 5450 nM
- GI50 (MDA-MB-468): 1060 nM
- GI50 [1]: 3100 nM
- CC50 [2]: 4100 nM
- fold change (FC) [3]: 2

Compound: C=C1C(=O)O[C@H]2[C@H]1CC/C(COC(=O)CCC(=O)NCCCCCCCCCNC(=O)CCC(=O)OC/C1=C/CC[C@@]3(C)O[C@H]3[C@H]3OC(=O)C(=C)[C@@H]3CC1)=C\CC[C@@]1(C)O[C@@H]21
- GI50 (CCRF-CEM): 280 nM
- GI50 (HL-60(TB)): 440 nM
- GI50 (K562): 450 nM
- GI50 (MOLT-4): 640 nM
- GI50 (RPMI-8226): 500 nM
- GI50 (SR): 330 nM
- GI50 (A549): 13800 nM
- GI50 (HOP-92): 1400 nM
- GI50 (NCI-H226): 1900 nM
- GI50 (NCI-H23): 2230 nM
- GI50 (NCI-H322M): 16300 nM
- GI50 (NCI-H460): 2180 nM
- GI50 (NCI-H522): 420 nM
- GI50 (COLO 205): 1220 nM
- GI50 (HCC 2998): 2250 nM
- GI50 (HCT-116): 860 nM
- GI50 (HCT-15): 2630 nM
- GI50 (HT-29): 1330 nM
- GI50 (KM12): 4600 nM
- GI50 (SW-620): 540 nM
- GI50 (SF-268): 2920 nM
- GI50 (SF-295): 7680 nM
- GI50 (SF-539): 1850 nM
- GI50 (SNB-19): 3380 nM
- GI50 (SNB-75): 1470 nM
- GI50 (U-251): 3010 nM
- GI50 (LOX IMVI): 370 nM
- GI50 (Malme-3M): 1940 nM
- GI50 (M14): 1650 nM
- GI50 (MDA-MB-435): 1630 nM
- GI50 (SK-MEL-2): 2120 nM
- GI50 (SK-MEL-28): 1470 nM
- GI50 (SK-MEL-5): 1880 nM
- GI50 (UACC-257): 2060 nM
- GI50 (UACC-62): 1690 nM
- GI50 (OVCAR-3): 1290 nM
- GI50 (OVCAR-4): 1480 nM
- GI50 (OVCAR-5): 1700 nM
- GI50 (OVCAR-8): 3240 nM
- GI50 (NCI/ADR-RES): 26700 nM
- GI50 (SK-OV-3): 5800 nM
- GI50 (786-0): 1490 nM
- GI50 (A498): 2720 nM
- GI50 (ACHN): 2100 nM
- GI50 (CAKI-1): 10500 nM
- GI50 (RXF 393): 1010 nM
- GI50 (SN12C): 2690 nM
- GI50 (TK-10): 1780 nM
- GI50 (UO-31): 3900 nM
- GI50 (PC-3): 2530 nM
- GI50 (DU-145): 1750 nM
- GI50 (MCF7): 420 nM
- GI50 (MDA-MB-231): 1580 nM
- GI50 (Hs-578T): 2990 nM
- GI50 (BT-549): 660 nM
- GI50 (T47D): 1490 nM
- GI50 (MDA-MB-468): 980 nM
- GI50 [1]: 440 nM
- CC50 [2]: 6500 nM
